Laboratory results reported in PMC10216605, “Developing In Vitro Models to Define the Role of Direct Mitochondrial Toxicity in Frequently Reported Drug-Induced Rhabdomyolysis” (Biomedicines, 2023).
Where two headings read alike, the source gives them in different places.

Experiments:
L6 cells [1] = test: Acute metabolic switch assay (cellular ATP content, glucose vs galactose media) in L6 differentiated myotubes; details: for Mitotoxicity classification in acute metabolic switch assay: based on IC50-ATPglu vs IC50-ATPgal; for IC50: Rattus norvegicus, L6, 2 h
Method: They were then seeded into collagen-coated wells (50 µg/mL in 0.02 M of acetic acid) at a density of 16,000 cells/100 μL/well (96 well plates) and 10,000 cells/100 μL/well (XF 96-well cell culture microplates). The cells were next incubated for 24 h in complete growth medium to promote adherence, after which the growth medium was removed and the cells washed twice with 1× HBSS. The L6 myoblasts were then cultured in differentiation medium consisting of high-glucose DMEM (25 mM) supplemented with L-glutamine (4 mM), sodium pyruvate (1 mM), HEPES (5 mM), and horse serum (2% v/v). Fresh differentiation medium was provided every 48 h for 7 days.
(§1) On the day of the assay, the media on the differentiated myotubes were replaced with either serum-free high-glucose (DMEM, 25 mM of glucose, 4 mM of L-glutamine, 1 mM of sodium pyruvate, and 5 mM of HEPES) or serum-free galactose (DMEM, 10 mM of galactose, 6 mM of L-glutamine, 1 mM of sodium pyruvate, and 5 mM of HEPES) media (100 µL) for 2 h (37 °C, 5% CO2). The glucose and galactose media were removed and replaced with drug-dosing solutions in either glucose or galactose media as appropriate, before incubation (2 h, 37 °C, 5% CO2). […] Vehicle control was included in each experiment.
(§2) The cellular ATP content was measured using a bioluminescence assay kit, alongside the concomitant measurement of protein using a bicinchoninic acid (BCA) assay kit to normalise ATP data to the total protein. Briefly, the cells were lysed using ATP lysis buffer (50 µL/well) and the plate was shaken (5 min). According to the manufacturer’s instructions, 40 µL of ATP reagent was added to each well containing 5 µL of cell lysate in a white 96-well plate. The […] luminescence signal was measured immediately using a plate reader (Varioskan, Thermo Scientific, Schaumburg, IL USA).

L6 cells [2] = details: 6 h exposure
Method: The mitochondrial stress test allowed confirmation of mitotoxicity and further identification of the specific mechanisms through quantification of OXPHOS parameters: basal respiration (BR), ATP-linked respiration (ALR), and spare respiratory capacity (SRC). On the day of the assay, for the analysis of the acute injection of the drug on differentiated myotubes, the differentiation media was replaced with 175 µL of unbuffered Seahorse Assay media supplemented with 25 mM of glucose, 4 mM of L-glutamine, 1 mM of sodium pyruvate, and 5 mM of HEPES pre-warmed to 37 °C, then incubated in a CO2 free incubator at 37 °C for 1 h. Alternately, in the pre-treatment strategy, differentiated myotubes were pre-treated with the drug for 5 h in differentiation medium, then transferred to a CO2-free incubator at 37 °C for 1 h. Next, the differentiation media were replaced with 175 µL of unbuffered Seahorse Assay media supplemented with the constituents stated above. Briefly, using the XF^e96 instrument (Seahorse extracellular flux analyser, Agilent Technologies, Santa Clara, CA, USA), the oxygen partial pressure in each well was allowed to reach equilibrium for 10 min. The oxygen consumption rate (OCR) was measured three times at baseline; then, there was a 3 min mix for each measurement followed by a 3 min wait. […] In the acute injection method, the drug injection was only performed at the end of the basal measurement cycles, followed by the mitochondrial inhibitors described above. The duration of the assay was 120 min (acute injection) and 90 min (pre-treatment strategy). From each mitochondrial stress test was determined the OCR parameters of non-mitochondrial respiration (NMR = lowest measurement after rotenone/antimycin A); basal respiration (BR = last measurement before oligomycin − NMR); proton-leak (PL = BR − lowest respiration after oligomycin); ATP-linked respiration (ALR = BR − PL); maximum respiratory capacity (MRC = highest measurement after FCCP − NMR); and spare respiratory capacity (SRC = MRC − BR) [42, 43].

HSKMDC = test: Mitochondrial stress test (Seahorse XFe96 respirometry) in HSKMDC; type: cell-based, human; details: acute injection
Method: On the day of the assay, for the analysis of the acute injection of the drug on differentiated myotubes, the differentiation media was replaced with 175 µL of unbuffered Seahorse Assay media supplemented with 25 mM of glucose, 4 mM of L-glutamine, 1 mM of sodium pyruvate, and 5 mM of HEPES pre-warmed to 37 °C, then incubated in a CO2 free incubator at 37 °C for 1 h. Alternately, in the pre-treatment strategy, differentiated myotubes were pre-treated with the drug for 5 h in differentiation medium, then transferred to a CO2-free incubator at 37 °C for 1 h. Next, the differentiation media were replaced with 175 µL of unbuffered Seahorse Assay media supplemented with the constituents stated above. Briefly, using the XF^e96 instrument (Seahorse extracellular flux analyser, Agilent Technologies, Santa Clara, CA, USA), the oxygen partial pressure in each well was allowed to reach equilibrium for 10 min. The oxygen consumption rate (OCR) was measured three times at baseline; then, there was a 3 min mix for each measurement followed by a 3 min wait. […] In the acute injection method, the drug injection was only performed at the end of the basal measurement cycles, followed by the mitochondrial inhibitors described above. The duration of the assay was 120 min (acute injection) and 90 min (pre-treatment strategy). From each mitochondrial stress test was determined the OCR parameters of non-mitochondrial respiration (NMR = lowest measurement after rotenone/antimycin A); basal respiration (BR = last measurement before oligomycin − NMR); proton-leak (PL = BR − lowest respiration after oligomycin); ATP-linked respiration (ALR = BR − PL); maximum respiratory capacity (MRC = highest measurement after FCCP − NMR); and spare respiratory capacity (SRC = MRC − BR).

[3] = FAERS analysis of reported rhabdomyolysis cases per suspect drug; details: for Number of Death Cases (n = 576): monotherapy rhabdomyolysis cases with fatal outcome
Method: Due to the quarterly updating of the database by the FDA, the searches were performed using the term “rhabdomyolysis” on one occasion to ensure the data were extracted at that specified period. All individual files were downloaded and saved from this one timepoint to specify the analysis period used in this study. Further refinement was performed using Microsoft Excel to extract only cases where the suspect drug was reported as a monotherapy, using the generic name of the suspect drugs. To ensure data accuracy, any case reported by a consumer or company underwent further checks to ensure it had not been previously reported by a healthcare provider, by confirming that no duplication of case ID was present.

[4] = system: primary human skeletal muscle-derived cells (HSKMDC); test: cells; type: cell-based; details: for IC50: Homo sapiens, Myotube, 2 h
Method: (§3) HSKMDC myoblasts were collected by trypsinisation using trypsin-EDTA (0.05%) upon reaching 50% confluence and seeded into collagen-coated wells, at a density of 20,000 cells/100 μL/well (96 well plates) and 25,000 cells/100 μL/well (XF 96-well cell culture microplates). After 24 h, the cells were washed twice with 1× PBS (-/-), and growth media were replaced with differentiation medium containing DMEM low-glucose media (glucose 5 mM), L-glutamine (4 mM), sodium pyruvate (1 mM) supplemented with 2% (v/v) horse serum, and (10 nM) human insulin. The medium was refreshed every 48 h for 5 days.
as §1
Cytotoxicity was detected using a lactate dehydrogenase (LDH) assay kit. Briefly, according to the manufacturers’ instructions, 25 µL of the supernatant and 10 µL of cell lysate were incubated with 50 µL of LDH reagent for 30 min in the dark. Samples were read at 490 nm using a plate reader.

[5] = system: primary human skeletal muscle-derived cells (HSKMDC); test: cells; type: cell-based; details: 2 h exposure; for IC50: Homo sapiens, Myotube, mean ± S.D. (n = 3)
Method: as §3, §1, §2

| Structure (SMILES) | Mitotoxicity classification in acute metabolic switch assay (L6 cells [1]; L6 cells, 2 h exposure) | Classification from pattern of changes in BR, ALR and SRC (L6 cells [2]) | Classification from pattern of changes in BR, ALR and SRC (HSKMDC) | Concentration at which significant reduction of ATP-linked respiration was first observed (HSKMDC) | (%) of total rhabdomyolysis cases ([3]; FAERS 2004 to 31 March 2020, of 27,140 cases) | Number of Rhabdomyolysis Cases ([3]; FAERS 2004 to 31 March 2020, total 27,140 rhabdomyolysis cases, some cases with more than one suspected drug) | Number of Death Cases (n = 576) [3] | (%) of monotherapy rhabdomyolysis cases ([3]; monotherapy, of 6583 cases) | Number of Rhabdomyolysis Cases (n = 6583) ([3]; suspected drug reported as a single drug used (monotherapy), FAERS 2004 to 31 March 2020) | IC50-LDH gal/ IC50-ATP al ([4]; HSKMDC, 2 h exposure, galactose media) | IC50 ([4]; read-out: LDH IC50 Galactose) | IC50 ([4]; read-out: LDH IC50 Glucose) | IC50-ATPglu/IC50-ATPgal (L6 cells [1]; L6 cells, 2 h exposure, […]) | IC50 (L6 cells [1]; read-out: ATP IC50 Galactose) | IC50 (L6 cells [1]; read-out: ATP IC50 Glucose) | IC50-ATPglu/IC50-ATPgal [5] | IC50-ATPglu/IC50-ATPgal ([5]; listed as rotenone) | IC50 ([5]; galactose serum-free media, read-out: ATP IC50 Galactose) | IC50 ([5]; glucose serum-free media, read-out: ATP IC50 Glucose) |
| --- | --- | --- | --- | --- | --- | --- | --- | --- | --- | --- | --- | --- | --- | --- | --- | --- | --- | --- | --- |
| CC(C)OC(=O)C(C)(C)Oc1ccc(C(=O)c2ccc(Cl)cc2)cc1 [Fenofibrate] | containing a mitochondrial liability | direct inhibitors of the electron transport chain | direct inhibitors of the electron transport chain | 3.6 µM | 1.7% | 449 | 6 | 1.9% | 126 |  |  |  |  |  |  |  |  |  |  |
| Cc1nc2n(c(=O)c1CCN1CCC(c3noc4cc(F)ccc34)CC1)CCCC2 [Risperidone] | containing a mitochondrial liability | direct inhibitors of the electron transport chain | direct inhibitors of the electron transport chain | 11 µM |  |  | 7 |  |  |  |  |  |  |  |  |  |  |  |  |
| C=C(C)[C@H]1Cc2c(ccc3c2O[C@@H]2COc4cc(OC)c(OC)cc4[C@@H]2C3=O)O1 [Rotenone] |  |  |  |  |  |  |  |  |  | >312.5 | > 5000 nM | > 5000 nM | >138.9 (<0.0001) | 36 ± 8 nM | > 5000 nM | >318.4 (<0.0001) | > 318 | 16 ± 7 nM | > 5000 nM |
